Six molecules from ChEMBL document CHEMBL5223061, “Mechanisms and inhibitors of nicotinamide N-methyltransferase” (RSC Med Chem, 2021) can be followed below.

Series [1] has as its target T1, Nicotinamide N-methyltransferase (Homo sapiens) (UniProt P40261).
T1 sequence (whole entry): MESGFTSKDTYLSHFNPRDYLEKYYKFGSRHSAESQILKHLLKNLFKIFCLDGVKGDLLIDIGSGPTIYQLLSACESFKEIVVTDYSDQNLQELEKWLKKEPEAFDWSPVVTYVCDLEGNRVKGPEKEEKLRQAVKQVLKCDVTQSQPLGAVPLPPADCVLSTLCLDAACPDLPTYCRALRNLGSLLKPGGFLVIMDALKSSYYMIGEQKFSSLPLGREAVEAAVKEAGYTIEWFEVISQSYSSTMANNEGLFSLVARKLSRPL
Put plainly: Inhibition of recombinant human NNMT expressed in Escherichia coli BL21 (DE3) assessed as Kobs/[I] ratio and measured after 20 mins using nicotinamide as substrate and SAM as cofactor by MTase-Glo reagent based assay.

Series [2] can be described thus: Inhibition of monkey NNMT preincubated for 30 mins followed by substrate, cofactor addition and measured after 60 mins using nicotinamide as substrate and SAM as cofactor by fluorescence enzymatic assay. Also noted: species or system Macaca mulatta.
Series [3] has as its target T1, Nicotinamide N-methyltransferase (Homo sapiens). In words: Inhibition of human NNMT at 30 uM preincubated for 30 mins followed by substrate, cofactor addition and measured after 60 mins using nicotinamide as substrate and SAM as cofactor by fluorescence enzymatic assay. The conditions noted are these: time 90.0 min.
For series [4] the target is unchanged. In words: Inhibition of NNMT (unknown origin) assessed as formation of MNA at 0.5 uM using nicotinamide as substrate and SAM as cofactor by fluorescence based assay.
Substrate in series [5]: NC(=O)c1cccnc1
In words: Binding affinity to recombinant human NNMT expressed in Escherichia coli BL21 (DE3) assessed as Km preincubated for 10 mins followed by NAM addition and measured after 10 mins by Michaelis-Menten analysis. The settings on record: time 20.0 min.

Substrate in series [6]: C[S+](CC[C@H](N)C(=O)[O-])C[C@H]1O[C@@H](n2cnc3c(N)ncnc32)[C@H](O)[C@@H]1O
In words: Binding affinity to recombinant human NNMT expressed in Escherichia coli BL21 (DE3) assessed as Km preincubated for 10 mins followed by SAM addition and measured after 10 mins by Michaelis-Menten analysis. The conditions noted are these: time 20.0 min.

Regarding `NC(=O)c1cnccc1Cl`, in series [1], the Ratio is 80 M⁻¹ min⁻¹.
In general, IC50 refers to the point on the concentration scale where inhibition reaches its midpoint. `COc1ccc(C(N)=O)cn1` showed an IC50 in series [2] of 2800 nM.
Regarding `Clc1ccncc1`, the Ratio in series [1] was determined as 20 M⁻¹ min⁻¹.
By inhibition is commonly meant how much of the control response was suppressed. As to `CNC(=O)c1ccc(OC)nc1`, in series [3], the inhibition amounted to 20%.
Regarding `C=C(C)[C@@]12O[C@@]3(/C=C/C=C/CCCCC)O[C@@H]1[C@@H]1[C@@H]4O[C@]4(CO)[C@@H](O)[C@]4(O)C(=O)C(C)=C[C@H]4[C@@]1(O3)[C@H](C)[C@H]2OC(C)=O`, the inhibition in series [4] was 50%.

B1: Nicotinamide N-methyltransferase (Homo sapiens), P40261 (protein)
chain: T1 sequence (whole entry)
What is called Km is the concentration of substrate that gives half-maximal velocity. For B1, the results for the Michaelis-Menten constant (Km) in series [5] and in series [6] were 199 µM and 8.5 µM, respectively.
